Data on 21 compounds can be found in patent US9090593B2, “Bicyclic compounds as Pim inhibitors” (AMGEN INC., priority 2010, dated 2015).

Assay [1] addresses T1, full length recombinant Pim-1 protein (Homo sapiens, UniProt P11309).
T1 construct: by full length recombinant Pim-1, Pim-2, or Pim-3 protein; hexahistidine tag followed by a thrombin cleavage site (N); made in house; host or cells: Sf9 (baculovirus) or E. coli (pET28)
In words: Pim-1 enzyme assay (HTRF, phosphorylation of biotinylated-BAD (S112) peptide). It counts as biochemical. Conditions: enzyme assay, Pim-1; read-out: Pim_1_IC50. The method in brief: (§1)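 Kinase: full-length human Pim-1/Pim-2, His6-thrombin tagged. Substrate biotin-BAD (S112) peptide. Buffer 60 mM Hepes pH 7.0, 0.05% BSA, 2 mM DTT. Stop 3 mM EDTA. Detection HTRF (Eu anti-pBAD/SA-APC). IC50 by 4-parameter logistic on POC.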

Assay [2] concerns the target T2, full length recombinant Pim-2 protein (Homo sapiens, UniProt Q9P1W9).
T2 construct: by full length recombinant Pim-1, Pim-2, or Pim-3 protein; hexahistidine tag followed by a thrombin cleavage site (N); made in house; host or cells: Sf9 (baculovirus) or E. coli (pET28)
Description: Pim-2 enzyme assay (HTRF, phosphorylation of biotinylated-BAD (S112) peptide). It counts as biochemical. Conditions: enzyme assay, Pim-2; read-out: Pim2_IC50. Summed up:
as §1

Assay [3] deals with T3, full length recombinant Pim-3 protein (Homo sapiens, UniProt Q86V86).
T3 construct: by full length recombinant Pim-1, Pim-2, or Pim-3 protein; purchased Millipore (UK)
In words: Pim-3 enzyme assay (HTRF, phosphorylation of biotinylated-BAD (S112) peptide). It counts as biochemical. Particulars: read-out: Pim3 IC50. Summed up: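 Full-length recombinant Pim-3 phosphorylates biotinylated BAD (S112) peptide in 60 mM Hepes pH 7.0, 0.05% BSA, 2 mM DTT; reaction stopped with 3 mM EDTA. Phospho-BAD detected by HTRF (Eu anti-phospho-BAD S112 antibody, streptavidin-APC). IC50 from percent-of-control values fitted to a 4-parameter logistic model.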

In assay [4] the target is T4, Pim-1 stably transfected into the U2OS human osteogenic sarcoma line (Homo sapiens, UniProt P11309).
T4 construct: expressed in transfected cells; host or cells: U2OS human osteogenic sarcoma line
In words: Pim cell assay, phospho-BAD normalized against total BAD, U2OS stably transfected with Pim-1. The class given is cell-based. Conditions: read-out: Pim1_Cell_IC50. The method in brief: (§2)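 U2OS cells stably expressing Pim-1 or Pim-2 were plated overnight at 37 °C, then dosed over a 10-point curve (final 0.3% DMSO; DMSO alone as high control). Lysates assayed for phospho- and total BAD by Meso Scale immunoassay; % phosphoprotein = (2×phospho)/(phospho+total)×100.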

Assay [5] has as its target T5, Pim-2 stably transfected into the U2OS human osteogenic sarcoma line (Homo sapiens, UniProt Q9P1W9).
T5 construct: expressed in transfected cells; host or cells: U2OS human osteogenic sarcoma line
In words: Pim cell assay, phospho-BAD normalized against total BAD, U2OS stably transfected with Pim-2. Further: high dose 31.6 µM. It counts as cell-based. Conditions: read-out: Pim2_Cell_IC50. Summed up: as §2

[6] abbreviates: U2OS cells stably transfected with Pim-1, phospho-BAD, high dose […].
Where [7] appears, read: U2OS cells stably transfected with Pim-2, phospho-BAD, high dose […].

Read-outs that look alike come from different tables or passages of the source.

T1 sequence (P11309 whole entry): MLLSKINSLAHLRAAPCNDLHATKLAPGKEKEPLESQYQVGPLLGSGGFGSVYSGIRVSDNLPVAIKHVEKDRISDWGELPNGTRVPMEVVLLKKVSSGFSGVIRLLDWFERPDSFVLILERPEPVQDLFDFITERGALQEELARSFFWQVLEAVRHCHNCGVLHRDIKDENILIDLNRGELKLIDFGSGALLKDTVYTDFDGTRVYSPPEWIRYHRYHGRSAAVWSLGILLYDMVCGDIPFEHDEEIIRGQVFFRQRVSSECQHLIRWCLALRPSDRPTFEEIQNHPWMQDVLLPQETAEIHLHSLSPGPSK
T4 sequence (P11309 whole entry): as above
T2 sequence (Q9P1W9 whole entry): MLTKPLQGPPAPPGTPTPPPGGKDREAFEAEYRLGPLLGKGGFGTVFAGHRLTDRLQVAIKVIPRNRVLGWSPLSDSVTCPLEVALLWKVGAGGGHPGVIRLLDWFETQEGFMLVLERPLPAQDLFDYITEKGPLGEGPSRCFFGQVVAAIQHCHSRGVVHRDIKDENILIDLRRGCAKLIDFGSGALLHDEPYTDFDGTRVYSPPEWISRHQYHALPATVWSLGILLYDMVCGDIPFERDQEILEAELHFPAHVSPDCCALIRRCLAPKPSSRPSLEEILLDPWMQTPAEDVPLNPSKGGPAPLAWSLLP
T5 sequence (Q9P1W9 whole entry): as above

For `NC1CCN(c2cncc(-c3n[nH]c4ccc(Br)cc34)n2)CC1` [Example 1, 1-(6-(5-bromo-1H-indazol-3-yl)pyrazin-2-yl)piperidin-4-amine], the IC50 in assay [1] came out at 31 nM; in assay [2] it was 23 nM; in assay [3], 11 nM; in assay [4] (setting [6]), 788 nM; in assay [5] (setting [7]), 8730 nM.
Turning to `NC1CCN(c2cncc(-c3n[nH]c4ccc(-c5cc(C(=O)NC6CC6)ccc5F)cc34)n2)CC1` [Example 3, 3-(3-(6-(4-aminopiperidin-1-yl)pyrazin-2-yl)-1H-indazol-5-yl)-N-cyclopropyl-4-fluorobenzamide], the IC50 came out at 8 nM in assay [1]; 13 nM in assay [2]; 9 nM in assay [3]; 3680 nM in assay [4] (setting [6]); 7390 nM in assay [5] (setting [7]).
On to `COc1cccc(-c2ccc3[nH]nc(-c4cncc(N5CCC(N)CC5)n4)c3c2)c1F` [Example 4, 1-(6-(5-(2-fluoro-3-methoxyphenyl)-1H-indazol-3-yl)pyrazin-2-yl)piperidin-4-amine], for which the IC50 in assay [1] is 2 nM; in assay [2], 35 nM; in assay [3] it was 4 nM; in assay [4] (setting [6]), 234 nM; in assay [5] (setting [7]) it was over 31600 nM.
For `NC1CCN(c2cncc(-c3n[nH]c4ccc(-c5cccc(F)c5)cc34)n2)CC1` [Example 7, 1-(6-(5-(3-Fluorophenyl)-1H-indazol-3-yl)pyrazin-2-yl)piperidin-4-amine] the same measures were 4 nM, 25 nM, 3 nM, 748 nM and over 31600 nM.
As for `NC1CCN(c2cncc(-c3n[nH]c4ccc(N5CCCC5=O)cc34)n2)CC1` [Example 8, 1-(3-(6-(4-Aminopiperidin-1-yl)pyrazin-2-yl)-1H-indazol-5-yl)pyrrolidin-2-one], the IC50 in assay [1] was 12 nM; in assay [2], 41 nM; in assay [3], 6 nM; in assay [4] (setting [6]), 2440 nM; in assay [5] (setting [7]), over 31600 nM.
For `COc1cc(-c2ccc3[nH]nc(-c4cncc(N5CCC(N)CC5)n4)c3c2)nc(OC)n1` [Example 9, 1-(6-(5-(2,6-dimethoxypyrimidin-4-yl)-1H-indazol-3-yl)pyrazin-2-yl)piperidin-4-amine], the IC50 was 4 nM in assay [1]; 96 nM in assay [2]; 1 nM in assay [3]; 437 nM in assay [4] (setting [6]); over 31600 nM in assay [5] (setting [7]).
Regarding `CN(c1cncc(-c2n[nH]c3ccc(-c4c(F)cccc4F)cc23)n1)C1CCNCC1` [Example 17, 6-(5-(2,6-Difluorophenyl)-1H-indazol-3-yl)-N-methyl-N-(piperidin-4-yl)pyrazin-2-amine], the IC50 in assay [1] was 5 nM; in assay [2], 43 nM; in assay [3] it was 4 nM; in assay [4] (setting [6]) it was 424 nM; in assay [5] (setting [7]), 11000 nM.
With `NC1CCCN(c2cncc(-c3c[nH]c4ccc(-c5c(F)cccc5F)cc34)n2)C1` (stereo not shown) [Example 21, 1-(6-(5-(2,6-difluorophenyl)-1H-indol-3-yl)pyrazin-2-yl)piperidin-3-amine], the IC50 was 3 nM in assay [1]; 98 nM in assay [2]; 5 nM in assay [3]; 1170 nM in assay [4] (setting [6]); over 31600 nM in assay [5] (setting [7]).
Take `NC1CCN(c2cncc(-c3c[nH]c4ccc(-c5c(F)cccc5F)cc34)n2)CC1` [Example 22, 1-(6-(5-(2,6-difluorophenyl)-1H-indol-3-yl)pyrazin-2-yl)piperidin-4-amine]: the IC50 stood at 2 nM in assay [1]; 18 nM in assay [2]; 5 nM in assay [3]; 439 nM in assay [4] (setting [6]); 7110 nM in assay [5] (setting [7]).
For `Fc1cccc(F)c1-c1ccc2[nH]cc(-c3cncc(O[C@@H]4CCCNC4)n3)c2c1` [Example 23, (R)-5-(2,6-difluorophenyl)-3-(6-(piperidin-3-yloxy)pyrazin-2-yl)-1H-indole], the IC50 worked out at 2 nM in assay [1]; 9 nM in assay [2]; 4 nM in assay [3]; 228 nM in assay [4] (setting [6]); 5040 nM in assay [5] (setting [7]).
`Fc1cccc(F)c1-c1ccc2[nH]cc(-c3nccc(N[C@@H]4CCCNC4)n3)c2c1` [Example 24, (R)-2-(5-(2,6-difluorophenyl)-1H-indol-3-yl)-N-(piperidin-3-yl)pyrimidin-4-amine]: the IC50 in assay [1] was 18 nM; in assay [2], 87 nM; in assay [3] it was 23 nM; in assay [4] it was 497 nM; in assay [5], over 31600 nM.
Take `CC(C)Oc1cncc(-c2ccc3[nH]cc(-c4cncc(N[C@@H]5CCCNC5)n4)c3c2)n1` [Example 25, (R)-6-(5-(6-isopropoxypyrazin-2-yl)-1H-indol-3-yl)-N-(piperidin-3-yl)pyrazin-2-amine]: the IC50 worked out at 4 nM in assay [1]; 198 nM in assay [2]; 15 nM in assay [3]; 405 nM in assay [4]; 24700 nM in assay [5].
In the case of `Fc1cccc(Cl)c1-c1ccc2[nH]cc(-c3cncc(O[C@@H]4CCCNC4)n3)c2c1` [Example 26, (R)-5-(2-chloro-6-fluorophenyl)-3-(6-(piperidin-3-yloxy)pyrazin-2-yl)-1H-indole bis(2,2,2-trifluoroacetate)], the IC50 in assay [1] amounted to 4 nM; in assay [2], 23 nM; in assay [3] it was 6 nM; in assay [4] (setting [6]), 514 nM; in assay [5] (setting [7]), 3690 nM.
For `NC1CCN(c2cncc(-c3c[nH]c4ccc(-c5c(F)cccc5Cl)cc34)n2)CC1` [Example 27, 1-(6-(5-(2-chloro-6-fluorophenyl)-1H-indol-3-yl)pyrazin-2-yl)piperidin-4-amine bis(2,2,2-trifluoroacetate)], in that order: 10 nM, 48 nM, 9 nM, 780 nM and 27200 nM.
As to `CC(C)Oc1cncc(-c2ccc3[nH]cc(-c4ccnc(N)c4)c3c2)n1` [Example 28, 4-(5-(6-(1-methylethoxy)-2-pyrazinyl)-1H-indol-3-yl)-2-pyridinamine], the IC50 in assay [1] was 32 nM; in assay [2], 271 nM; in assay [3], 12 nM; in assay [4], 1400 nM; in assay [5], 11300 nM.
Turning to `COc1cncc(-c2ccc3[nH]nc(-c4cnc(N5CCC(N)CC5)s4)c3c2)c1` [Example 31, 1-(5-(5-(5-Methoxypyridin-3-yl)-1H-indazol-3-yl)thiazol-2-yl)piperidin-4-amine], the IC50 in assay [1] is 9 nM; in assay [2], 326 nM; in assay [3], 4 nM; in assay [4], 600 nM; in assay [5], 21600 nM.
Take `c1cc2[nH]nc(-c3cncc(O[C@@H]4CCCNC4)n3)c2cc1-c1cncc(C2CC2)n1` [Example 118, 5-(6-cyclopropyl-2-pyrazinyl)-3-(6-((3R)-3-piperidinyloxy)-2-pyrazinyl)-1H-indazole]: the IC50 in assay [2] worked out at 24 nM; in assay [3], 1 nM; in assay [4] (setting [6]), 41 nM; in assay [5] (setting [7]) it was 5750 nM.
Consider `CN1CCOc2cc(-c3ccc4[nH]nc(-c5cncc(O[C@@H]6CCCNC6)n5)c4c3)ccc21` [Example 123, 4-methyl-7-(3-(6-((3R)-3-piperidinyloxy)-2-pyrazinyl)-1H-indazol-5-yl)-3,4-dihydro-2H-1,4-benzoxazine], for which the IC50 turned out to be 1 nM in assay [1], 10 nM in assay [2], 6 nM in assay [3] and 3520 nM in assay [5] (setting [7]).
In the case of `c1cc2c(cc1-c1ccc3[nH]nc(-c4cncc(O[C@@H]5CCCNC5)n4)c3c1)OCCO2` [Example 140, 5-(2,3-dihydro-1,4-benzodioxin-6-yl)-3-(6-((3R)-3-piperidinyloxy)-2-pyrazinyl)-1H-indazole], the IC50 was found to be 2 nM in assay [1], 19 nM in assay [2], 6 nM in assay [3] and 7780 nM in assay [5] (setting [7]).
As for `NC1CCN(c2cncc(-c3c[nH]c4ccc([N+](=O)[O-])cc34)n2)CC1` [Example 232, 1-(6-(5-nitro-1H-indol-3-yl)pyrazin-2-yl)piperidin-4-amine], the IC50 in assay [1] is 47 nM; in assay [2], 65 nM; in assay [3] it was 28 nM; in assay [5], over 15800 nM.
For the compound `COC(=O)c1ccc2[nH]cc(-c3cncc(N4CCC(N)CC4)n3)c2c1` [Example 236, methyl 3-(6-(4-aminopiperidin-1-yl)pyrazin-2-yl)-1H-indole-5-carboxylate], the IC50 in assay [1] amounted to 5 nM; in assay [2], 44 nM; in assay [3], 7 nM; in assay [5] it was 5820 nM.
